Laboratory results from US20220024906A1, “COMPOUNDS AND COMPOSITIONS FOR TREATING CONDITIONS ASSOCIATED WITH STING ACTIVITY” (IFM Due, Inc., priority 2020, published 2022).

Target: T1, hSTING (Homo sapiens, UniProt Q86WV6, G230A/H232R/R293Q/R71H)
T1 construct: host or cells: THP1-Dual KO-IFNAR2 cells
Assay: STING reporter assay (luciferase) in THP1-Dual KO-IFNAR2 cells stimulated with 2′3′cGAMP
Assay type: cell-based
Conditions: 15 μM 2′3′cGAMP transfected, 24 h, luciferase reporter activity
Procedure: STING pathway activation by the compounds described herein was measured using THP1-Dual™ cells (KO-IFNAR2).
THP1-Dual™ KO-IFNAR2 Cells (obtained from invivogen) were maintained in RPMI, 10% FCS, 5 ml P/S, 2 mM L-glut, 10 mM Hepes, and 1 mM sodium pyruvate. Compounds were spotted in empty 384 well tissue culture plates (Greiner 781182) by Echo for a final concentration of 0.0017-100 μM. Cells were plated into the TC plates at 40 μL per well, 2×10E6 cells/mL. For activation with STING ligand, 2′3′cGAMP (MW 718.38, obtained from Invivogen), was prepared in Optimem media.
The following solutions were prepared for each 1×384 plate: • Solution A: 2 mL Optimem with one of the following stimuli: • 60 μL of 10 mM 2′3′cGAMP→150 μM stock • Solution B: 2 mL Optimem with 60 μL Lipofectamine 2000→Incubate 5 min at RT
2 mL of solution A and 2 ml Solution B was mixed and incubated for 20 min at room temperature (RT). 20 μL of transfection solution (A+B) was added on top of the plated cells, with a final 2′3′cGAMP concentration of 15 μM. The plates were then centrifuged immediately at 340 g for 1 minute, after which they were incubated at 37° C., 5% CO2, >98% humidity for 24 h. Luciferase reporter activity was then measured. EC50 values were calculated by using standard methods known in the art.
Luciferase reporter assay: 10 μL of supernatant from the assay was transferred to white 384-plate with flat bottom and squared wells. One pouch of QUANTI-Luc™ Plus was dissolved in 25 mL of water. 100 μL of QLC Stabilizer per 25 mL of QUANTI-Luc™ Plus solution was added. 50 μL of QUANTI-Luc™ Plus/QLC solution per well was then added. Luminescence was measured on a Platereader (e.g., Spectramax I3X (Molecular Devices GF3637001)).
Luciferase reporter activity was then measured. EC50 values were calculated by using standard methods known in the art.

T1 sequence (Q86WV6 whole entry R71H/G230A/H232R/R293Q): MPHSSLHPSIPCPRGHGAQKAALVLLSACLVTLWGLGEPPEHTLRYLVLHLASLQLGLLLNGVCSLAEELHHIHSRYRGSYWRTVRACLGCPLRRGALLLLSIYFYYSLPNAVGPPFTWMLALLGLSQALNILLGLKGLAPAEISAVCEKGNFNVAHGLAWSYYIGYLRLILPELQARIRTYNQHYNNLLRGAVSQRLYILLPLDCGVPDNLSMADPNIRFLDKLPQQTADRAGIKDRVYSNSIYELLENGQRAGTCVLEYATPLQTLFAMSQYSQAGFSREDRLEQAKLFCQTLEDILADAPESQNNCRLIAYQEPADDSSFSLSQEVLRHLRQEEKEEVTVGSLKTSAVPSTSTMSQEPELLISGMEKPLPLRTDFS

EC50 [nM]	SMILES
5000 to 100000	CC(C)(Oc1ccc(F)cc1)C(=O)Nc1c[nH]c2cc(F)c(F)cc12 [Compound 134, N-(5,6-difluoro-1H-indol-3-yl)-2-(4-fluorophenoxy)-2-methylpropanamide]
200 to 1000	O=C(CCc1ccc(OC(F)(F)F)cc1)Nc1c[nH]c2cc(F)c(F)cc12 [Compound 104, N-(5,6-difluoro-1H-indol-3-yl)-3-(4-(trifluoromethoxy)phenyl)propanamide]
5000 to 100000	O=C(Nc1c[nH]c2cc(F)c(F)cc12)[C@H]1CCN(C(=O)OCc2ccccc2)C1 [Compound 115, benzyl (S)-3-((5,6-difluoro-1H-indol-3-yl)carbamoyl)pyrrolidine-1-carboxylate]
1000 to 5000	CC(Oc1ccc(OC(F)(F)F)cc1)C(=O)Nc1c[nH]c2cc(F)c(F)cc12 (stereo not drawn) [Compound 130, N-(5,6-difluoro-1H-indol-3-yl)-2-(4-(trifluoromethoxy)phenoxy)propanamide]
5000 to 100000	COc1cccc(N2CC(C(=O)Nc3c[nH]c4cc(F)c(F)cc34)CC2=O)c1 (stereo not drawn) [Compound 112, N-(5,6-difluoro-1H-indol-3-yl)-1-(3-methoxyphenyl)-5-oxopyrrolidine-3-carboxamide]
1000 to 5000	CCOc1ccc(CC(=O)Nc2c[nH]c3cc(F)c(F)cc23)cc1C(F)(F)F [Compound 103, N-(5,6-difluoro-1H-indol-3-yl)-2-(4-ethoxy-3-(trifluoromethyl)phenyl)acetamide]
5000 to 100000	COc1ccc(CC(=O)Nc2c[nH]c3cc(F)c(F)cc23)cc1C(F)(F)F [Compound 132, N-(5,6-difluoro-1H-indol-3-yl)-2-(4-methoxy-3-(trifluoromethyl)phenyl)acetamide]
200 to 1000	Cc1ccc(OCCC(=O)Nc2c[nH]c3cc(F)c(F)cc23)cc1 [Compound 120, N-(5,6-difluoro-1H-indol-3-yl)-3-(p-tolyloxy)propanamide]
200 to 1000	O=C(CC1CC(F)(F)C1)Nc1c[nH]c2ccc(-c3cnn(-c4ccc(C(F)(F)F)cc4)c3)cc12 [Compound 157, 2-(3,3-difluorocyclobutyl)-N-(5-(1-(4-(trifluoromethyl)phenyl)-1H-pyrazol-4-yl)-1H-indol-3-yl)acetamide]
200 to 1000	Cc1cc(CC(=O)Nc2c[nH]c3ccc(-c4cnn(-c5ccc(C(F)(F)F)cc5)c4)cc23)on1 [Compound 144, 2-(3-methylisoxazol-5-yl)-N-(5-(1-(4-(trifluoromethyl)phenyl)-1H-pyrazol-4-yl)-1H-indol-3-yl)acetamide]
200 to 1000	O=C(CCc1cnoc1)Nc1c[nH]c2ccc(-c3cnn(-c4ccc(C(F)(F)F)cc4)c3)cc12 [Compound 139, 3-(isoxazol-4-yl)-N-(5-(1-(4-(trifluoromethyl)phenyl)-1H-pyrazol-4-yl)-1H-indol-3-yl)propanamide]
200 to 1000	O=C(/C=C/c1ccc(OC(F)(F)F)cc1)Nc1c[nH]c2cc(F)c(F)cc12 [Compound 136, (E)-N-(5,6-difluoro-1H-indol-3-yl)-3-(4-(trifluoromethoxy)phenyl)acrylamide]
1000 to 5000	C[C@H](C(=O)Nc1c[nH]c2ccc(-c3cnn(-c4ccc(C(F)(F)F)cc4)c3)cc12)N1CCCC1=O [Compound 156, (R)-2-(2-oxopyrrolidin-1-yl)-N-(5-(1-(4-(trifluoromethyl)phenyl)-1H-pyrazol-4-yl)-1H-indol-3-yl)propanamide]
200 to 1000	N#Cc1cccc(/C=C/C(=O)Nc2c[nH]c3cc(F)c(F)cc23)c1 [Compound 135, (E)-3-(3-cyanophenyl)-N-(5,6-difluoro-1H-indol-3-yl)acrylamide]
1000 to 5000	C/C(=C\c1ccccn1)C(=O)Nc1c[nH]c2cc(F)c(F)cc12 [Compound 109, (E)-N-(5,6-difluoro-1H-indol-3-yl)-2-methyl-3-(pyridin-2-yl)acrylamide]
